In ChEMBL document CHEMBL1145414, “Candidaspongiolides, distinctive analogues of tedanolide from sponges of the genus Candidaspongia” (2007):
Converted amounts (≈) assume the structure as drawn.

Assay: Cytotoxicity against NCI60 cells
Format: functional
Details: Homo sapiens

| Structure (SMILES) | GI50 |
| --- | --- |
| C/C=C\[C@H](C)[C@H]1O[C@@]1(C)[C@@H](O)[C@H]1COC(=O)[C@H](O)[C@@H](OC)[C@H](C)C(=O)[C@H](C)[C@@H](O)/C(C)=C/[C@H](C)C(=O)CC[C@@H](C)C1=O | 0.09 ng/mL (≈ 0.000151 µM) |
| C/C=C\[C@H](C)[C@H]1OC1(C)[C@@H](O)[C@H]1COC(=O)[C@H](O)[C@@H](OC)[C@H](C)C(=O)[C@H](C)[C@@H](OC(C)=O)/C(C)=C/[C@H](C)C(=O)C[C@H](O)[C@@](O)(CO)C1=O (single isomer, unassigned) | 42 ng/mL (≈ 0.0613 µM) |
